Reference: ChEMBL document CHEMBL1201862, “PubChem BioAssay data set” (2004)
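1) Cells in 96-well plates. 2) Compound, 48 h, 5 concentrations. 3) Linear interpolation between surrounding doses. 4) Unreached endpoint = highest concentration. At the GI50, growth is halved.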 Activity calls are given as the source filed them. Rule as the data show it: active = GI50 up to about 1.1 µM and inactive = higher.

Assays:
Test in all cases: NCI-60 cell line screen, 48 h
OVCAR-3 = test system: OVCAR-3
UACC-257 = test system: UACC-257
EKVX = test system: EKVX
SN12C = test system: SN12C
SW-620 = test system: SW-620
SF-539 = test system: SF-539
HOP-92 = test system: HOP-92
DLD-1 = test system: DLD-1
KM-20L2 = test system: KM-20L2
CCRF-CEM = test system: CCRF-CEM
MOLT-4 = test system: MOLT-4
SNB-78 = test system: SNB-78
NCI-H460 = test system: NCI-H460
OVCAR-8 = test system: OVCAR-8
DU-145 = test system: DU-145
MDA-MB-231 = test system: MDA-MB-231
NCI/ADR-RES = test system: NCI/ADR-RES
BT-549 = test system: BT-549
Hs-578T = test system: Hs-578T
MCF7 = test system: MCF7

Row | SMILES | GI50 (OVCAR-3) | GI50 (UACC-257) | GI50 (EKVX) | GI50 (SN12C) | GI50 (SW-620) | GI50 (SF-539) | GI50 (HOP-92) | GI50 (DLD-1) | GI50 (KM-20L2) | GI50 (CCRF-CEM) | GI50 (MOLT-4) | GI50 (SNB-78) | GI50 (NCI-H460) | GI50 (OVCAR-8) | GI50 (DU-145) | GI50 (MDA-MB-231) | GI50 (NCI/ADR-RES) | GI50 (BT-549) | GI50 (Hs-578T) | GI50 (MCF7)
1 | CN(C)/N=C(\CCN1CCCC1)CC(c1ccccc1)c1c(O)c2ccccc2oc1=O (centres undefined) | > 100 µM (inactive) | > 100 µM (inactive) | > 100 µM (inactive) | > 100 µM (inactive) | > 100 µM (inactive) | > 100 µM (inactive) | > 100 µM (inactive) | > 100 µM (inactive) | > 100 µM (inactive) | > 100 µM (inactive) |  |  |  |  |  |  |  |  |  | 
2 | CS/C(=N\C(=S)N(C)C)N(c1ccccc1)c1nc(N(C)C)s[s+]1 | 10.8 µM (inactive) | 3.95 µM (inactive) | 16 µM (inactive) | 13.1 µM (inactive) | 4.05 µM (inactive) | 7.67 µM (inactive) | 20.9 µM (inactive) |  | 15.9 µM (inactive) | 1.88 µM (inactive) | 3.08 µM (inactive) | 16.9 µM (inactive) | 2.91 µM (inactive) | 10.4 µM (inactive) |  |  |  |  |  | 
3 | Cc1cc(O)c2c(c1)C(=O)c1cc(O)cc(O)c1C2=O [EMODIN] |  | 28.1 µM (inactive) |  | 20.5 µM (inactive) | 27.6 µM (inactive) |  | 14.4 µM (inactive) | 23.3 µM (inactive) | 40.8 µM (inactive) | > 61.8 µM (inactive) | 31 µM (inactive) | 49.2 µM (inactive) | 20.3 µM (inactive) |  |  |  |  |  |  | 
4 | COC(=O)C(COC(C)=O)NC(=O)/C=C/c1ccc(O)c(OC(C)=O)c1 (centres undefined) | 50.6 µM (inactive) | > 100 µM (inactive) | > 100 µM (inactive) | > 100 µM (inactive) | 31 µM (inactive) | 15.1 µM (inactive) | 83.4 µM (inactive) |  |  | 17.4 µM (inactive) | 13.6 µM (inactive) |  | 60.3 µM (inactive) | 58.1 µM (inactive) | 58.6 µM (inactive) | 30.1 µM (inactive) | 75.3 µM (inactive) | > 100 µM (inactive) | > 100 µM (inactive) | > 100 µM (inactive)
5 | O=C(/C=C1\C[C@H]2C=Nc3ccccc3C(=O)N2C1)NCCCCCNC(=O)/C=C1\C[C@H]2C=Nc3ccccc3C(=O)N2C1 | 4.1 µM (inactive) | 4.36 µM (inactive) | 18 µM (inactive) | 4.74 µM (inactive) | 2.1 µM (inactive) | 19.1 µM (inactive) | 4.63 µM (inactive) |  |  | 1.05 µM (active) | 1.7 µM (inactive) |  | 18.3 µM (inactive) | 2.99 µM (inactive) | 13.5 µM (inactive) | 16.2 µM (inactive) | 24.3 µM (inactive) | 12.6 µM (inactive) | 22.6 µM (inactive) | 6.97 µM (inactive)
6 | O=C1C(Cl)=C(N2C(=O)CCCC2=O)C(=O)c2ccccc21 | 31.6 µM (inactive) | 19.1 µM (inactive) | 16.3 µM (inactive) | 21.2 µM (inactive) | 20.9 µM (inactive) | 18.5 µM (inactive) | 3.46 µM (inactive) |  |  | 4.13 µM (inactive) | 17.9 µM (inactive) |  | 14.6 µM (inactive) | 11.7 µM (inactive) | 16.6 µM (inactive) | 20 µM (inactive) | 22.6 µM (inactive) | 20.3 µM (inactive) | 31.2 µM (inactive) | 16.8 µM (inactive)
7 | Cn1c(=O)c2c(nc3sc4c(n32)C(=O)c2c(O)ccc(O)c2C4=O)n(C)c1=O | 4.67 µM (inactive) | 11.2 µM (inactive) | 13 µM (inactive) | 1.63 µM (inactive) | 0.406 µM (active) | 3.44 µM (inactive) | 2.66 µM (inactive) |  |  | 0.305 µM (active) | 1.31 µM (inactive) |  | 20.5 µM (inactive) | 2.34 µM (inactive) | 11.2 µM (inactive) | 2.28 µM (inactive) | 2.74 µM (inactive) | 5.9 µM (inactive) | 16.3 µM (inactive) | 0.955 µM (active)
8 | CCOC(=O)C1=C(C)N(NC(N)=O)C(C)(O)C12CCOC2=O (centres undefined) | > 100 µM (inactive) | > 100 µM (inactive) | > 100 µM (inactive) | > 100 µM (inactive) | > 100 µM (inactive) | > 100 µM (inactive) |  | > 100 µM (inactive) | > 100 µM (inactive) |  | > 100 µM (inactive) | 1.97 µM (inactive) | > 100 µM (inactive) | > 100 µM (inactive) |  |  |  |  |  | 
9 | NCCSc1nc2ccccc2s1 | 38.6 µM (inactive) | 47 µM (inactive) | 34.4 µM (inactive) | 38.7 µM (inactive) | 32.1 µM (inactive) | 17.3 µM (inactive) | 25.5 µM (inactive) |  |  | 26.3 µM (inactive) | 34.9 µM (inactive) |  | 36.1 µM (inactive) | 43.2 µM (inactive) | 33.9 µM (inactive) | 40 µM (inactive) | 42.6 µM (inactive) | 31.5 µM (inactive) | 32.1 µM (inactive) | 28.8 µM (inactive)
10 | O=C(NCCCNCCN1C(=O)c2cccc3cc([N+](=O)[O-])cc(c23)C1=O)c1cc(-c2ccccc2)nc2ccccc12 | 5.87 µM (inactive) | 2.21 µM (inactive) | 7.52 µM (inactive) | 3.16 µM (inactive) | 0.955 µM (active) | 1.98 µM (inactive) | 3.18 µM (inactive) |  |  | 0.966 µM (active) | 0.347 µM (active) |  | 1.55 µM (inactive) | 0.933 µM (active) | 5.21 µM (inactive) | 3.01 µM (inactive) | 4.22 µM (inactive) | 6.15 µM (inactive) | 3.41 µM (inactive) | 2.17 µM (inactive)
11 | O=C(c1ccccc1)C1C[C@H]2CO[C@H](c3ccccc3)N2C1=O (some centres undefined) | > 100 µM (inactive) | > 100 µM (inactive) | > 100 µM (inactive) | > 100 µM (inactive) | > 100 µM (inactive) | > 100 µM (inactive) | > 100 µM (inactive) |  |  | 99.3 µM (inactive) | 97.9 µM (inactive) |  | > 100 µM (inactive) | > 100 µM (inactive) | > 100 µM (inactive) | > 100 µM (inactive) | > 100 µM (inactive) | > 100 µM (inactive) | > 100 µM (inactive) | > 100 µM (inactive)
12 | CCCCCCCCOC(CO)CO | > 100 µM (inactive) | > 100 µM (inactive) |  | > 100 µM (inactive) | > 100 µM (inactive) |  | 44.6 µM (inactive) | > 100 µM (inactive) | > 100 µM (inactive) | > 100 µM (inactive) | > 100 µM (inactive) |  | > 100 µM (inactive) | > 100 µM (inactive) |  |  |  |  |  | 
13 | CN(C)Cc1cc(/N=N/c2c(Cl)cccc2Cl)ccc1O | 57.4 µM (inactive) | 79.6 µM (inactive) | > 100 µM (inactive) | > 100 µM (inactive) | 79.6 µM (inactive) | > 100 µM (inactive) | 31.9 µM (inactive) |  |  | > 100 µM (inactive) | 67.3 µM (inactive) |  | 75 µM (inactive) | > 100 µM (inactive) | 8.49 µM (inactive) | > 100 µM (inactive) | > 100 µM (inactive) | 49 µM (inactive) | 40.9 µM (inactive) | > 100 µM (inactive)
14 | COC(=O)/C(C#N)=C1\NN=NN1CCCc1ccccc1 | > 100 µM (inactive) | > 100 µM (inactive) | > 100 µM (inactive) | > 100 µM (inactive) | > 100 µM (inactive) | > 100 µM (inactive) | > 100 µM (inactive) | > 100 µM (inactive) |  | > 100 µM (inactive) | > 100 µM (inactive) | > 100 µM (inactive) | > 100 µM (inactive) | > 100 µM (inactive) |  |  |  |  |  | 
15 | CC(NC1CCCC[C@@H]1O)c1ccccc1 (some centres undefined) | > 100 µM (inactive) | > 100 µM (inactive) | > 100 µM (inactive) | > 100 µM (inactive) | > 100 µM (inactive) |  | > 100 µM (inactive) | > 100 µM (inactive) | > 100 µM (inactive) | > 100 µM (inactive) | > 100 µM (inactive) | > 100 µM (inactive) | > 100 µM (inactive) | > 100 µM (inactive) |  |  |  |  |  | 
16 | O=CNNC(=O)CSc1nc2ccc(I)cc2c(=O)n1Cc1ccccc1 | 21.8 µM (inactive) | 22.9 µM (inactive) | 23.9 µM (inactive) | 28.4 µM (inactive) | 44.8 µM (inactive) | 34.6 µM (inactive) | 25.4 µM (inactive) |  |  | 23.7 µM (inactive) | 0.361 µM (active) |  | 20 µM (inactive) | 46.5 µM (inactive) | 43.7 µM (inactive) | 29.3 µM (inactive) | 31.3 µM (inactive) | 41.7 µM (inactive) | 34 µM (inactive) | 37.2 µM (inactive)
17 | C#C[C@]1(O)CC[C@H]2[C@@H]3CCC4=C/C(=N\OCCN(CC)CC)CC[C@]4(C)[C@H]3CC[C@@]21C | 2.87 µM (inactive) | 4.31 µM (inactive) | 6.87 µM (inactive) | 9.12 µM (inactive) | 7.18 µM (inactive) | 4.26 µM (inactive) | 16.5 µM (inactive) |  |  | 3.33 µM (inactive) | 0.122 µM (active) |  | 5.08 µM (inactive) | 7.24 µM (inactive) | 10.4 µM (inactive) | 13.6 µM (inactive) | 2.59 µM (inactive) | 10 µM (inactive) | 3.18 µM (inactive) | 4.29 µM (inactive)
18 | CCC1(N)C(=O)OCc2c1cc1n(c2=O)Cc2cc3ccccc3nc2-1 (centres undefined) | > 55.7 µM (inactive) | 36.6 µM (inactive) | 51.4 µM (inactive) | 3.99 µM (inactive) | 25.7 µM (inactive) | 4.04 µM (inactive) | 35.4 µM (inactive) |  |  | 0.859 µM (active) | 0.871 µM (active) |  | 0.47 µM (active) | 7.71 µM (inactive) | 2.65 µM (inactive) | 77.4 µM (inactive) | 5.02 µM (inactive) | 30.5 µM (inactive) | > 100 µM (inactive) | 2.14 µM (inactive)
